Patent US5925621A, “Method for preventing sexually transmitted diseases” (priority 1997, dated 1999)

Assays:
[1] = test system: vaginal/cervical epithelial and other cells; conditions: cited from earlier work
MT2 cells = experiment: cytotoxicity of test compound towards host (MT2) cells; format: cell-based; conditions: at the levels of Example 5
Procedure: Serial dilutions of the test compounds (ranging from 0.1 μg/ml to 1.0 mg/ml) were added to HIV-1 virus such that 50 μl inoculum produced between 70 to 100 syncytia per well in untreated wells containing MT2 cells. The HIV-1 used was strain IIIs propagated in, and harvested from, a T4-lymphobastoid cell line. Each serial dilution of the test compound with virus was placed in each of three wells containing MT2 cells. The test compound alone was added to a fourth well containing MT2 cells to test for possible cytotoxicity. Triplicate virus control samples (no added test compounds but containing the equivalent amounts of the RPMI medium) were also included.

Lactobacillus gasseri = experiment: effect on normal vaginal flora (Lactobacillus gasseri growth); format: cell-based; conditions: 0.5 mg/ml
Procedure: This example illustrates the effect of the inhibitory agents of this invention on the normal vaginal flora. Lactobacillus gasseri, which is found in normal vaginal flora, was obtained from the American Type Culture Collection (Rockville, Md.) and cultured under anaerobic conditions at 37° C. in the presence of the desired test agents. Control samples without added test agents were also run. Samples were collected at twenty minute intervals starting at 120 minutes after the start of incubation through 240 minutes. The absorbance at 550 nm was used to estimate the cell density and inhibitory effects. Nonoxynol-9 was also evaluated for comparison purposes.

[2] = test system: sheep testicular hyaluronidase; experiment: hyaluronidase inhibition (hyaluronic acid hydrolysis); format: biochemical; conditions: 10 minutes preincubation, pH 5.5; inactive = no inhibition at 1 mg/ml
Procedure: Hyaluronidase activity was quantitatively determined by measuring the extent of hyaluronic acid hydrolysis (i.e., the concentration of N-acetylglucosamine-reactive material formed from enzyme activity). Reaction mixtures (0.25 ml) containing the following were prepared: test compound (variable concentration); 0.1 M sodium acetate; 0.15 M sodium chloride; pH adjusted to 5.5; 7.2 units sheep testicular hyaluronidase (Sigma, Type III; H-2251) contained in an acetate buffer; 0.3 mg/ml hyaluronic acid (Sigma, from bovine vitreous humor; H-7630). The enzyme was preincubated with the test agent (1 mg/ml for screening purposes) for 10 minutes before starting the reaction by the addition of hyaluronic acid. The enzyme reaction was determined using the method of Aronson and Davidson (J. Biol. Chem. 241 437-440 (1967)). The reaction mixture was incubated for 30 minutes at room temperature. The reaction product was determined calorimetrically with p-dimethylaminobenzaldehyde (Reissig et al., J. Biol. Chem. 217 959-966 (1965)) by measuring the absorbance at 545 nm.
The reversibility of the hyaluronidase was determined by evaluating enzyme activity at different levels of enzyme (Ackermann and Potter, Proc. Soc. Exp. Biol. Med. 72 1-9 (1949)).

## Nonoxynol-9
[1]
  lowest concentration that can injure vaginal/cervical epithelial and other cells: about 0.0005%
MT2 cells
  cytotoxic towards the MT2 cells: did show cytotoxic effects
Lactobacillus gasseri
  inhibition of growth of Lactobacillus gasseri: about 60%
[2]
  IC50 hyaluronidase: inactive
